Data: article PMC10644342, “Improved Antibacterial Activity of 1,3,4-Oxadiazole-Based Compounds That Restrict Staphylococcus aureus Growth Independent of LtaS Function” (ACS Infectious Diseases, 2023)
In brackets after ≈: the same amount, converted by molar mass. Read-outs that look alike come from different tables or passages of the source.

Tests used:
MRSA strain LAC = assay: Time-kill kinetic analysis; type: cell-based, Staphylococcus aureus; details: for effect on growth of LAC: 1× MIC, 24 h, inoculum 5 × 10^5 cfu
Method: Overnight cultures of MRSA strain LAC were subcultured 1:200 and grown to the exponential phase in fresh MHB. These cultures were subsequently diluted to give 500 μL of MHB containing 5 × 10^5 cfu. […] These suspensions were incubated for 24 h at 37 °C, with 50 μL of the suspension serially diluted 1:10 in 450 μL of phosphate buffered saline (PBS) and plated out on TSA at times 0, 1, 2, 4, 6, and 24 h for enumeration.

[1] = tested on: HepG2 human liver cancer cells; assay: HepG2 liver cell toxicity assay (MTT); type: cell-based; details: for IC50: Homo sapiens, 24 h incubation, MTT, concentration responsible for 50% HepG2 cell death
Method: HepG2 human liver cancer cells (ECACC: Cat no. 85011430) were grown in Dulbecco’s Modified Eagle’s Medium (DMEM; with 4.5 g/L glucose) supplemented with 10% (v/v) fetal bovine serum, 1% (v/v) minimal essential media, and 0.2% (v/v) penicillin/streptomycin/L-glutamine solution. Cells were then seeded at a concentration of 10,000 cells per well and allowed to attach and grow for 18 h. Following this, the medium was aspirated away and replaced with a medium containing a range of concentrations of 1771 and compound 13, and the cells were grown for a further 24 h. After this, cell viability was assessed using the MTT (3-[4,5-dimethylthiazol-2-yl]-2,5-diphenyltetrazolium bromide) assay. 1771 or 13 containing growth media was aspirated away and replaced with 100 μL of 1 mg/mL MTT (in growth media) and incubated for 50 min at 37 °C. Subsequently, this solution was removed, and 150 μL of isopropanol was added to the cells and allowed to incubate at RT with gentle rocking on an orbital shaker. Absorbance at abs595nm was recorded using a Sunrise plate reader, and the % cell viability was calculated compared to a no-compound control.

S. aureus [2] = assay: Checkerboard MIC analysis with antistaphylococcal antibiotics (FIC index); type: cell-based; details: lowest possible value
Method: Antibiotic combination 1771 Compound 13
Figure S1. Checkerboard analysis of 1771 and compound 13 in combination with clinically relevant antibiotics. Checkerboard analysis was repeated twice for each antibiotic combination, and the mean bacterial growth (OD 600nm) plotted as a heat map with 1771/compound 13 concentration of the y-axis and test antibiotic concentration on the x axis.
FIC indexes were calculated for each combination and the lowest possible value presented. […]
Supplementary Materials and Methods
Synergistic activity with clinically relevant antibiotics
The synergistic ability of 1771 and 13 was achieved using the chequerboard micro-broth dilution method. Antibiotic partners tested included: oxacillin, daptomycin, vancomycin, gentamicin, and linezolid with starting concentrations of 256 µg/ml, 8 µg/ml, 8 µg/ml, 4 µg/ml, and 8 µg/ml respectively. Overnight cultures were sub-cultured 1:200 in fresh MHB and grown to optical density of OD600nm of 0.5-0.6 and prepared according to the MIC analysis. Following an 18 h incubation at 37 °C the sum of the fractional inhibitory […]
using the equation ΣFIC = FICA +FICB = (MICA in combination with B/MICA) + (MICB in combination with A/MICB). The resulting value was interpreted according to the following rules: synergistic (FIC ≤ 0.5), additive (FIC >0.5, <1) or indifferent (FIC ≥ 1 <4). […]

erythrocytes = assay: Erythrocyte toxicity (hemolysis) assay; type: cell-based, human; details: concentrations as high as 256 μg/mL, 1 h, 37 °C
Method: Consent was collected from three healthy volunteers prior to blood collection and in accordance with the recommendations of the University of Bath, Research Ethics Approval Committee for Health Blood (EP 18/19108). Blood was collected by venepuncture and drawn directly into K2-EDTA-coated Vacutainer tubes (BD Biosciences) to prevent coagulation. The blood was then pelleted at 500g for 10 min at 4 °C, and the plasma layer was removed. The remaining hematocrit was resuspended to the original volume in a sterile saline solution. This procedure was repeated three times and finally resuspended in sterile PBS and diluted to 2% (v/v). One hundred microlitres of the resulting blood suspension were aliquoted in a 96-well microtire plate. An equal volume of either 1771 or 13 (diluted in PBS) was then added at a concentration range of 256–2 μg/mL and incubated for 1 h at 37 °C. Blood incubated with PBS served as a negative control, and total hemolysis (positive control) was provided by incubating the cells in 2% (v/v) Triton X-100. Following incubation, the 96-well microtire plate was pelleted at 500g for 5 min, and 100 μL of supernatant was transferred into a new plate. Absorbance at abs404nm was measured using a Sunrise plate reader, and percentage hemolysis was calculated according to controls.

B. subtilis (W168) = assay: MIC, broth microdilution (CLSI); type: cell-based; details: Bacillus subtilis
Method: (§1) B. subtilis, staphylococcal, and enterococcal strains were grown in Mueller Hinton broth (MHB), while streptococcal strains were grown in MHB supplemented with 5% laked horse blood. All strains were grown for 18 h at 37 °C. The overnight cultures were subsequently subcultured 1:200 and grown to the exponential phase (OD600nm = 0.5–0.6) in fresh broth. 1771 and its derivatives 9–14 were reconstituted in DMSO and further diluted by performing a 1:2 serial dilution ranging between 256 and 0.125 μg/mL in a 96-well microtiter plate. One hundred microliters of 0.5 McFarland standardized inoculum (approximately equal to 5 × 10^5 cfu) were then dispensed into each well in the 96-well microtiter plate. The plate was incubated for 18 h at 37 °C.

S. aureus [3] = assay: MIC, broth microdilution (CLSI); type: cell-based, Staphylococcus aureus; details: for MIC: read-out: minimum inhibitory concentration; for MIC50: used for selectivity index; for MIC range against S. aureus strains: collection of S. aureus strains incl. multidrug-resistant MRSA and VRSA
Method: S. aureus, S. epidermidis, E. faecalis, and E. faecium strains were routinely cultivated on tryptic soy agar (TSA) and grown for 18 h at 37 °C. S. aureus single colonies were subsequently transferred into 2 mL of tryptic soy broth (TSB) and grown for a further 18 h at 37 °C while being shaken at 180 rpm. S. pyogenes, S. agalactiae, and S. dysgalactiae strains were routinely cultured on TSA supplemented with 5% sheep blood and grown for 18 h at 37 °C with 5% CO2. E. coli was grown in LB broth at 37 °C. For LtaS-deficient strains, TSB was supplemented with 0.5 M NaCl to provide an osmotically balanced environment and instead grown at 30 °C. For strains harboring the pRMC2 tetracycline inducible vector,[61] the growth medium was supplemented with 10 μg/mL chloramphenicol and […] anhydrotetracycline hydrochloride (Sigma). Phenylalanine-arginine β-naphthylamide (PAβN) (Sigma) was dissolved in sterile water.
as §1

[4] = Staphylococcus aureus, NEWMAN, strain Newman
[5] = Staphylococcus aureus, strain EMRSA-15
[6] = Staphylococcus aureus, strain LAC
[7] = Staphylococcus aureus, strain MRSA252
[8] = Staphylococcus aureus, strain MW2
[9] = Staphylococcus aureus, strain Mu3
[10] = Staphylococcus aureus, strain Mu50
[11] = Staphylococcus aureus, strain SH1000
[12] = Staphylococcus aureus, strain TW20

Structure (SMILES)	effect on growth of LAC (MRSA strain LAC)	IC50 [1] [µg/mL]	FIC index (S. aureus [2]; combination with daptomycin)	FIC index (S. aureus [2]; combination with gentamicin)	FIC index (S. aureus [2]; combination with linezolid)	FIC index (S. aureus [2]; combination with oxacillin)	FIC index (S. aureus [2]; combination with vancomycin)	erythrocyte lysis (erythrocytes)	MIC (B. subtilis (W168)) [µg/mL]	MIC (S. aureus [3]; [4]) [µg/mL]	MIC (S. aureus [3]; [5]) [µg/mL]	MIC (S. aureus [3]; [6]) [µg/mL]	MIC (S. aureus [3]; [7]) [µg/mL]	MIC (S. aureus [3]; [8]) [µg/mL]	MIC (S. aureus [3]; [9]) [µg/mL]	MIC (S. aureus [3]; [10]) [µg/mL]	MIC (S. aureus [3]; [11]) [µg/mL]	MIC (S. aureus [3]; [12]) [µg/mL]	MIC50 (S. aureus [3]; Staphylococcus aureus) [µg/mL]	MIC range against S. aureus strains (S. aureus [3]) [µg/mL]	other results
O=C(COC(=O)Cc1coc2ccc3ccccc3c12)Nc1nnc(-c2ccc(S(F)(F)(F)(F)F)cc2)o1 [Compound 13, 2-Oxo-2-((5-(4-(pentafluoro-l6-sulfaneyl)phenyl)-1,3,4-oxadiazol-2-yl)amino)ethyl 2-(Naphtho[2,1-b]furan-1-yl)acetate]	completely inhibited the growth	27.3 (≈ 49.3 µM)	0.75	0.75	0.515	0.75	1	neither caused any lysis	0.5 to 1 (≈ 0.903 to 1.81 µM)	0.5 (≈ 0.903 µM)	0.5 (≈ 0.903 µM)	0.5 (≈ 0.903 µM)	1 (≈ 1.81 µM)	0.5 (≈ 0.903 µM)	0.5 (≈ 0.903 µM)	0.5 (≈ 0.903 µM)	0.5 (≈ 0.903 µM)	0.5 (≈ 0.903 µM)	0.5 (≈ 0.903 µM)	0.5 to 1	starting inoculum surviving the exposure (MRSA strain LAC; 4× MIC, LAC): 1%; MIC90 (S. aureus [3]; Staphylococcus aureus, against S. aureus): 0.5 µg/mL (≈ 0.903 µM); fold increase in activity compared to 1771 (S. aureus [3]; multidrug-resistant S. aureus strains): 16- to 32 fold
O=C(COC(=O)Cc1coc2ccc3ccccc3c12)Nc1nnc(-c2ccccc2)o1 [Compound 1771, 2-Oxo-2-((5-phenyl-1,3,4-oxadiazol-2-yl)amino)ethyl 2-(Naphtho[2,1-b]furan-1-yl)acetate, reference compound]	completely inhibited the growth	24.7 (≈ 57.8 µM)	0.625	0.375	1	0.75	1	neither caused any lysis	4 to 8 (≈ 9.36 to 18.7 µM)	4 to 8 (≈ 9.36 to 18.7 µM)	8 to 16 (≈ 18.7 to 37.4 µM)	8 (≈ 18.7 µM)	8 (≈ 18.7 µM)	8 (≈ 18.7 µM)	8 to 16 (≈ 18.7 to 37.4 µM)	4 to 8 (≈ 9.36 to 18.7 µM)	4 to 8 (≈ 9.36 to 18.7 µM)	8 (≈ 18.7 µM)	8 (≈ 18.7 µM)	4 to 16	killing effect (MRSA strain LAC; 4× MIC, LAC): roughly 65%; selectivity index (IC50/MIC50) ([1]; HepG2 IC50 / S. aureus MIC50): 3.08
